Test results as given in publication PMC7580763, “Novel insights on saccharin- and acesulfame-based carbonic anhydrase inhibitors: design, synthesis, modelling investigations and biological activity evaluation” (Journal of Enzyme Inhibition and Medicinal Chemistry, 2020).
Where two headings read alike, the source gives them in different places.

How the values were obtained:
Format in all cases: biochemical
hCA XII = hCA XII (Homo sapiens, UniProt O43570); assay: CA inhibition, stopped-flow CO2 hydrase assay, hCA XII
Chain of hCA XII (O43570 25-354): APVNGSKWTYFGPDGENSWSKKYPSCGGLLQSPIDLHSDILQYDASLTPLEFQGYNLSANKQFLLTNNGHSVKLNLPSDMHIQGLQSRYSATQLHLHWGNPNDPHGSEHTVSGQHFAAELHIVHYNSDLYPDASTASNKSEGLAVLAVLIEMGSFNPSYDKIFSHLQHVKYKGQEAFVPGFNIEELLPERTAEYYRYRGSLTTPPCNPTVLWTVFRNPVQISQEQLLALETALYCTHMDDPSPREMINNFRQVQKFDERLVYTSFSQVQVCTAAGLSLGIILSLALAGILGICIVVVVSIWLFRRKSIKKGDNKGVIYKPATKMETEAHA
Procedure: (§1) An Applied Photophysics stopped-flow instrument has been used for assaying the CA-catalyzed CO2 hydration activity. […] The initial rates of the CA-catalysed CO2 hydration reaction were followed for a period of 10−100 s. The CO2 concentrations ranged from 1.7 to 17 mM for the determination of the kinetic parameters and inhibition constants. […] The uncatalyzed rates were determined in the same manner and subtracted from the total observed ones. Stock solutions of each inhibitor (0.1 mM) were prepared in distilled − deionized water and dilutions up to 0.01 nM were done thereafter with distilled − deionized water. Inhibitor and enzyme solutions were preincubated together for 15 min at room temperature prior to assay to allow for the formation of the E−I complex. The inhibition constants were obtained by nonlinear least-squares methods using the Cheng-Prusoff equation and represent the mean from at least three different determinations. […] Human CA isoforms were recombinant enzymes obtained in-house as reported earlier.

hCA I = hCA I (Homo sapiens, UniProt P00915); assay: CA inhibition, stopped-flow CO2 hydrase assay, hCA I
Chain of hCA I (P00915 whole entry): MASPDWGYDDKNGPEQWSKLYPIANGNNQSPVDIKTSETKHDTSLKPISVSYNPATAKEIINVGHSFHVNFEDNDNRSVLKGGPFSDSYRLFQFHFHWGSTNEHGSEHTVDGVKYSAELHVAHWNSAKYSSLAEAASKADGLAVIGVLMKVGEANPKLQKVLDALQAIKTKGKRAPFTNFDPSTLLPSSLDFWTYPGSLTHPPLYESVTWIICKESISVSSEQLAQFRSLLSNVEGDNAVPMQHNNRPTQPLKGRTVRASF
Procedure: as §1

hCA IX = hCA IX (Homo sapiens, UniProt Q16790); assay: CA inhibition, stopped-flow CO2 hydrase assay, hCA IX
Procedure: as §1

hCA II = hCA II (Homo sapiens, UniProt P00918); assay: CA inhibition, stopped-flow CO2 hydrase assay, hCA II
Procedure: as §1

[1] = Table 1, saccharin-based derivatives, recombinant enzyme, 15 min preincubation, pH 7.5

Compound | Ki (hCA XII) [µM] | Ki (hCA I) [µM] | Ki (hCA I; [1]) [µM] | Ki (hCA IX) [µM] | Ki (hCA IX; [1]) [µM] | Ki (hCA II) [µM] | Ki (hCA II; [1]) [µM] | inhibitory activity against hCA I, in words (hCA I) | inhibitory activity against hCA II, in words (hCA II) | Ki (hCA XII; [1]) [µM]
CC(C)=CCN1C(=O)c2ccccc2S1(=O)=O [Compound 1] | 0.23 | > 1000 | > 1000 | 0.39 | 0.39 | > 1000 | > 1000 |  |  | 
O=C1c2ccccc2S(=O)(=O)N1Cc1ccccc1Cl [Compound 2] | 0.22 |  | > 1000 |  | 0.3 |  | > 1000 | ineffective | ineffective | 
O=C1c2ccccc2S(=O)(=O)N1Cc1cccc(Cl)c1 [Compound 3] | 1.3 |  | > 1000 | 0.3 | 0.1 |  | > 1000 | ineffective | ineffective | 
O=C(CN1C(=O)c2ccccc2S1(=O)=O)c1cccc([N+](=O)[O-])c1 [Compound 4] | 0.41 |  | > 1000 | > 1000 | > 1000 |  | > 1000 | ineffective | ineffective | 
COC(=O)c1ccccc1S(=O)(=O)Nc1ccccc1 [Compound 5] |  |  | > 1000 |  | 59.6 |  | > 1000 |  |  | > 1000
COC(=O)c1ccccc1S(=O)(=O)Nc1ccc(F)cc1 [Compound 6] |  |  | > 1000 |  | 262 |  | > 1000 |  |  | > 1000
COC(=O)c1ccccc1S(=O)(=O)Nc1ccccc1Cl [Compound 7] |  |  | > 1000 |  | 428 |  | > 1000 |  |  | > 1000
COC(=O)c1ccccc1S(=O)(=O)Nc1ccc(Cl)cc1 [Compound 8] |  |  | > 1000 |  | 955 |  | > 1000 |  |  | > 1000
COC(=O)c1ccccc1S(=O)(=O)Nc1ccc(Br)cc1 [Compound 9] |  |  | > 1000 |  | 6.7 |  | 689 |  |  | > 1000
COC(=O)c1ccccc1S(=O)(=O)Nc1ccc(C(F)(F)F)cc1 [Compound 10] |  |  | > 1000 |  | 563 |  | > 1000 |  |  | > 1000
COC(=O)c1ccccc1S(=O)(=O)Nc1cccc([N+](=O)[O-])c1 [Compound 11] |  |  | > 1000 |  | > 1000 |  | > 1000 |  |  | > 1000
COC(=O)c1ccccc1S(=O)(=O)Nc1ccc([N+](=O)[O-])cc1 [Compound 12] |  |  | > 1000 |  | 62.8 |  | > 1000 |  |  | > 1000
COC(=O)c1ccccc1S(=O)(=O)Nc1ccc(C)cc1 [Compound 13] |  |  | > 1000 |  | 68.2 |  | > 1000 |  |  | > 1000
COC(=O)c1ccccc1S(=O)(=O)Nc1c(C)cccc1C [Compound 14] |  |  | > 1000 |  | 39.7 |  | > 1000 |  |  | > 1000
COC(=O)c1ccccc1S(=O)(=O)Nc1ccc(C(C)C)cc1 [Compound 15] |  |  | > 1000 |  | 57.6 |  | > 1000 |  |  | > 1000
COC(=O)c1ccccc1S(=O)(=O)Nc1ccc(OC)cc1 [Compound 16] |  |  | > 1000 |  | 93.3 |  | > 1000 |  |  | > 1000
O=C(O)c1ccccc1S(=O)(=O)Nc1ccccc1 [Compound 17] |  |  | > 1000 |  | 46.5 |  | > 1000 |  |  | > 1000
O=C(O)c1ccccc1S(=O)(=O)Nc1ccc(F)cc1 [Compound 18] |  |  | > 1000 |  | 45.8 |  | > 1000 |  |  | > 1000
O=C(O)c1ccccc1S(=O)(=O)Nc1ccccc1Cl [Compound 19] |  |  | > 1000 |  | > 1000 |  | > 1000 |  |  | > 1000
O=C(O)c1ccccc1S(=O)(=O)Nc1ccc(Cl)cc1 [Compound 20] |  |  | > 1000 |  | > 1000 |  | > 1000 |  |  | > 1000

Compound | Ki (hCA XII) [µM] | Ki (hCA I) [µM] | Ki (hCA I; [1]) [µM] | Ki (hCA IX) [µM] | Ki (hCA IX; [1]) [µM] | Ki (hCA II) [µM] | Ki (hCA II; [1]) [µM] | inhibitory activity against hCA I, in words (hCA I) | inhibitory activity against hCA II, in words (hCA II) | Ki (hCA XII; [1]) [µM]
O=C(O)c1ccccc1S(=O)(=O)Nc1ccc(Br)cc1 [Compound 21] |  |  | > 1000 |  | 72.8 |  | > 1000 |  |  | > 1000
O=C(O)c1ccccc1S(=O)(=O)Nc1ccc(C(F)(F)F)cc1 [Compound 22] |  |  | > 1000 |  | 84.8 |  | > 1000 |  |  | > 1000
O=C(O)c1ccccc1S(=O)(=O)Nc1cccc([N+](=O)[O-])c1 [Compound 23] |  |  | > 1000 |  | > 1000 |  | > 1000 |  |  | > 1000
O=C(O)c1ccccc1S(=O)(=O)Nc1ccc([N+](=O)[O-])cc1 [Compound 24] |  |  | > 1000 | 0.24 | 0.24 | 66.9 |  |  |  | > 1000
Cc1ccc(NS(=O)(=O)c2ccccc2C(=O)O)cc1 [Compound 25] |  |  | > 1000 |  | > 1000 |  | > 1000 |  |  | > 1000
Cc1cccc(C)c1NS(=O)(=O)c1ccccc1C(=O)O [Compound 26] |  |  | > 1000 |  | > 1000 |  | > 1000 |  |  | > 1000
CC(C)c1ccc(NS(=O)(=O)c2ccccc2C(=O)O)cc1 [Compound 27] |  |  | > 1000 |  | > 1000 |  | > 1000 |  |  | > 1000
COc1ccc(NS(=O)(=O)c2ccccc2C(=O)O)cc1 [Compound 28] |  |  | > 1000 |  | > 1000 |  | > 1000 |  |  | > 1000
O=C1c2ccccc2S(=O)(=O)N1c1ccccc1 [Compound 29] |  |  | > 1000 |  | > 1000 |  | > 1000 |  |  | > 1000
O=C1c2ccccc2S(=O)(=O)N1c1ccc(F)cc1 [Compound 30] |  |  | > 1000 |  | > 1000 |  | > 1000 |  |  | > 1000
O=C1c2ccccc2S(=O)(=O)N1c1ccccc1Cl [Compound 31] |  |  | > 1000 |  | 640 | 478 |  |  |  | > 1000
O=C1c2ccccc2S(=O)(=O)N1c1ccc(Cl)cc1 [Compound 32] |  |  | > 1000 |  | > 1000 |  | > 1000 |  |  | > 1000
O=C1c2ccccc2S(=O)(=O)N1c1ccc(Br)cc1 [Compound 33] |  |  | > 1000 |  | 869 |  | > 1000 |  |  | > 1000
O=C1c2ccccc2S(=O)(=O)N1c1ccc(C(F)(F)F)cc1 [Compound 34] |  |  | > 1000 |  | > 1000 |  | > 1000 |  |  | > 1000
O=C1c2ccccc2S(=O)(=O)N1c1cccc([N+](=O)[O-])c1 [Compound 35] |  |  | > 1000 |  | > 1000 |  | > 1000 |  |  | > 1000
O=C1c2ccccc2S(=O)(=O)N1c1ccc([N+](=O)[O-])cc1 [Compound 36] |  |  | > 1000 | 443 | 444 |  | > 1000 |  |  | > 1000
Cc1ccc(N2C(=O)c3ccccc3S2(=O)=O)cc1 [Compound 37] |  |  | > 1000 |  | > 1000 |  | > 1000 |  |  | > 1000
Cc1cccc(C)c1N1C(=O)c2ccccc2S1(=O)=O [Compound 38] |  |  | > 1000 |  | > 1000 |  | > 1000 |  |  | > 1000
CC(C)c1ccc(N2C(=O)c3ccccc3S2(=O)=O)cc1 [Compound 39] |  |  | > 1000 |  | > 1000 |  | > 1000 |  |  | > 1000
COc1ccc(N2C(=O)c3ccccc3S2(=O)=O)cc1 [Compound 40] |  |  | > 1000 |  | > 1000 |  | > 1000 |  |  | > 1000
